Patent US20260216238A1, “TETRATHIOMOLYBDIC ACID FOR USE IN TREATING COPPER METABOLISM-ASSOCIATED DISEASES OR DISORDERS (WILSON DISEASE)” (Alexion Pharmaceuticals, Inc., priority 2023, published 2026)

Test system: patients with Wilson disease (WD)
Test: UWDRS Part III total score, functional subscale and individual items (neurological examination)
Assay type: in vivo, human
Conditions: for UWDRS Part III (0-175) change from baseline, Mean (SD) / UWDRS Part III Functional Subscale (0-10) change from baseline, Mean (SD): pooled Studies 301 and 201
Protocol: The UWDRS scoring system was developed specifically for the motor and movement disorders associated with chronic copper neurotoxicity in WD. Some individual items/subscales of the UWDRS Part III (arising from a chair, gait, handwriting, and speech) in addition to the UWDRS Parts I, II, and III overall, were assessed to further define the range of burdensome signs and symptoms of WD, so as to further understand the assessment of treatment effects on patients with WD. The UWDRS scores for consciousness (Part I) and abnormal neurologic examination findings (Part III) will be determined by a trained neurologist rater who is blinded to study treatment randomization. These scores were used to provide a rigorous dataset for evaluating changes from baseline.
Unified Wilson Disease Rating Scale (Parts I, II, and III): The UWDRS is a clinical rating scale designed to evaluate the neurological manifestations of WD that generally can be divided into 3 movement disorder syndromes: dystonic, ataxic, and Parkinsonian syndrome. The UWDRS comprises 3 parts: UWDRS Part I (level of consciousness, item 1), UWDRS Part II (a patient-reported review of daily activity items [disability], items 2 to 11), and UWDRS Part III (a detailed neurological examination, items 12 to 34).
The UWDRS Part I and Part III were assessed by a neurologist who is blinded to the treatment randomization, while UWDRS Part II may be reported to a non-blinded member of the study team by the patient, family member, or caregiver. The UWDRS has not been formally evaluated in adolescents. However, the components of Part I (level of consciousness), Part II (patient or caregiver-reported disability) and Part III (neurologic examination findings) were not fundamentally different between adults and adolescents. Patients aged 12 years and older were expected to be able to comply with UWDRS assessments.
Pooled results from all such participants will be integrated together into one timeline to allow analyses of changes in UWDRS, long-term copper control, and long-term safety laboratory data.
Endpoints (directly measured non-ceruloplasmin-bound copper [dNCC], UWDRS III (rater blinded) total and individual item scores, Clinical Global Impression-Improvement [CGI-I]) were evaluated at baseline (BL) and Week 48 (W48). Normalization (score decrease to 0), improvement (≥1 point decrease), stability (no change), or worsening (≥1 point increase) of total and individual UWDRS III item scores were evaluated at W48.

[1] = Subpopulation E (incomplete or intolerant responders), Week 48, MMRM
[2] = Subpopulation E (incomplete or intolerant responders), Week 48, TTM N=79, SoC N=38

In the case of bis-choline tetrathiomolybdate [TTM], the “UWDRS Part III score change (mean)” value (0-48W, symptomatic patients) was −2.91, the “UWDRS symptom: Arising from chair” value (BL) was 85 and the “UWDRS symptom: Arm and hand Dystonia” value (BL) was 64. The “UWDRS symptom: Cervical Dystonia” value (BL) was 74, the “UWDRS symptom: Chorea” value (BL) was 90 and the “UWDRS symptom: Facial Expression” value (BL) was 57. The “UWDRS symptom: Finger Taps” value (BL) was 44, the “UWDRS symptom: Finger to Nose” value (BL) was 67 and the “UWDRS symptom: Gait” value (BL) was 59. For the same substance, the “UWDRS symptom: Handwriting” value (BL) was 55, the “UWDRS symptom: Head Tremor” value (BL) was 84 and the “UWDRS symptom: Involuntary Crying” value (BL) was 99. For the same substance, the “UWDRS symptom: Jaw Tremor” value (BL) was 99, the “UWDRS symptom: Leg Ability” value (BL) was 62 and the “UWDRS symptom: Oculomotor” value (BL) was 89. The “UWDRS symptom: Postural Arm Tremor” value (BL) was 49, the “UWDRS symptom: Postural Leg Tremor” value (BL) was 68 and the “UWDRS symptom: Posture” value (BL) was 67. The “UWDRS symptom: Pyramidal Signs” value (BL) was 89, the “UWDRS symptom: RAM of Hands” value (BL) was 48 and the “UWDRS symptom: Rigidity” value (BL) was 58. The “UWDRS symptom: Speech” value (BL) was 44, the “UWDRS symptom: Stereotyped Actions” value (BL) was 93 and the “UWDRS symptom: Tremor at rest” value (BL) was 75. The “UWDRS symptom: Wing-beating tremor” value (BL) was 64, the “UWDRS-III, observed value, Mean (SD)” value (Baseline, N=220) was 15.43 (19.833) and the “UWDRS Part III (0-175), Change from Baseline at 48 weeks, LSM” value (Study 301 Full Analysis Set) was −0.60. The “UWDRS Part III (0-175), Change from Baseline at 48 weeks, Mean” value (Study 301 Full Analysis Set) was −2.20, the “UWDRS Part III functional subscale (0-10), Change from Baseline at 48 weeks, LSM” value (Study 301 Full Analysis Set) was 0.001 and the “UWDRS Part III functional subscale (0-10), Change from Baseline at 48 weeks, Mean” value (Study 301 Full Analysis Set) was −0.147. The “UWDRS Part III-arising from chair (0-4), Change from Baseline at 48 weeks, LSM” value (Study 301 Full Analysis Set) was 0.0, the “UWDRS Part III-arising from chair (0-4), Change from Baseline at 48 weeks, Mean” value (Study 301 Full Analysis Set) was 0.0 and the “UWDRS Part III-gait (0-10), Change from Baseline at 48 weeks, LSM” value (Study 301 Full Analysis Set) was 0.06. The “UWDRS Part III-gait (0-10), Change from Baseline at 48 weeks, Mean” value (Study 301 Full Analysis Set) was −0.06, the “UWDRS Part III-handwriting (0-4), Change from Baseline at 48 weeks, LSM” value (Study 301 Full Analysis Set) was −0.1 and the “UWDRS Part III-handwriting (0-4), Change from Baseline at 48 weeks, Mean” value (Study 301 Full Analysis Set) was −0.1. The “UWDRS Part III-speech (0-4), Change from Baseline at 48 weeks, LSM” value (Study 301 Full Analysis Set) was 0.0, the “UWDRS Part III-speech (0-4), Change from Baseline at 48 weeks, Mean” value (Study 301 Full Analysis Set) was −0.1 and the “UWDRS Part III change from baseline, LSM” value [1] was −2.52. The “UWDRS Part III change from baseline, LSM Diff (TTM vs SoC)” value [1] was −0.53, the “UWDRS Part III change from baseline, Mean” value [2] was −2.64 and the “UWDRS Part III change from baseline, Median” value [2] was −1.00. For the same substance, the “UWDRS Part III, Change from Baseline, Max” value [2] was 31.0, the “UWDRS Part III, Change from Baseline, Min” value [2] was −28.0, and the “UWDRS Part III, Change from Baseline, Q1” value [2] was −6.00,. The “UWDRS Part III, Change from Baseline, Q3” value [2] was 0.00, the “UWDRS-III change from baseline, Mean (SD)” value (from here on “UWDRS-III change … (SD)”) (TTM exposure 4 weeks, N=215) was −0.72 (6.701) and the “UWDRS Part III (0-175) change from baseline, Mean (SD)” value (shortened to “UWDRS Part III (0-175) change … (SD)”) (TTM exposure 4 weeks) was −0.72 (6.701). For the same substance, the “UWDRS Part III Functional Subscale (0-10) change from baseline, Mean (SD)” value (TTM exposure 4 weeks) was −0.072 (0.6009), the “UWDRS-III change … (SD)” value (TTM exposure 12 weeks, N=204) was −1.11 (7.065) and the “UWDRS Part III (0-175) change … (SD)” value (TTM exposure 12 weeks) was −1.11 (7.065). For the same substance, the “UWDRS Part III Functional Subscale (0-10) change from baseline, Mean (SD)” value (TTM exposure 12 weeks) was −0.137 (0.7864), the “UWDRS-III change … (SD)” value (TTM exposure 24 weeks, N=182) was −0.97 (8.447) and the “UWDRS Part III (0-175) change … (SD)” value (TTM exposure 24 weeks) was −0.97 (8.447). The “UWDRS Part III Functional Subscale (0-10) change from baseline, Mean (SD)” value (TTM exposure 24 weeks) was −0.157 (0.9091), the “UWDRS-III change … (SD)” value (TTM exposure 36 weeks, N=156) was −2.38 (8.581) and the “UWDRS Part III (0-175) change … (SD)” value (TTM exposure 36 weeks) was −2.38 (8.581). The “UWDRS Part III Functional Subscale (0-10) change from baseline, Mean (SD)” value (TTM exposure 36 weeks) was −0.286 (0.9929), the “UWDRS-III change … (SD)” value (TTM exposure 48 weeks, N=156) was −3.37 (9.778) and the “UWDRS Part III (0-175) change … (SD)” value (TTM exposure 48 weeks) was −3.37 (9.778). The “UWDRS Part III Functional Subscale (0-10) change from baseline, Mean (SD)” value (TTM exposure 48 weeks) was −0.345 (1.0940), the “UWDRS-III change … (SD)” value (TTM exposure 60 weeks, N=141) was −2.00 (6.40) and the “UWDRS Part III (0-175) change … (SD)” value (TTM exposure 60 weeks) was −2.00 (6.40). For the same substance, the “UWDRS Part III Functional Subscale (0-10) change from baseline, Mean (SD)” value (TTM exposure 60 weeks) was −0.422 (1.0814), the “UWDRS-III change … (SD)” value (TTM exposure 72 weeks, N=125) was −4.93 (11.682) and the “UWDRS Part III (0-175) change … (SD)” value (TTM exposure 72 weeks) was −4.93 (11.682). The “UWDRS Part III Functional Subscale (0-10) change from baseline, Mean (SD)” value (TTM exposure 72 weeks) was −0.494 (1.2826), the “UWDRS-III change … (SD)” value (TTM exposure 96 weeks, N=66) was −7.95 (14.078) and the “UWDRS Part III (0-175) change … (SD)” value (TTM exposure 96 weeks) was −7.95 (14.078). The “UWDRS Part III Functional Subscale (0-10) change from baseline, Mean (SD)” value (TTM exposure 96 weeks) was −0.900 (1.5193), the “UWDRS-III change … (SD)” value (TTM exposure 120 weeks, N=50) was −8.92 (15.045) and the “UWDRS Part III (0-175) change … (SD)” value (TTM exposure 120 weeks) was −8.92 (15.045). The “UWDRS Part III Functional Subscale (0-10) change from baseline, Mean (SD)” value (TTM exposure 120 weeks) was −0.946 (1.7746), the “UWDRS-III change … (SD)” value (TTM exposure 144 weeks, N=42) was −9.78 (15.423) and the “UWDRS Part III (0-175) change … (SD)” value (TTM exposure 144 weeks) was −9.78 (15.423).
